The nature of data set [1]: in vitro. To be noted: African green monkey.
For data set [2], the system named is M. tuberculosis H37Rv. The data set is described as follows: Microdilution alamarBlue assay (MABA) MIC. Type of data set: cell-based. The settings on record: Mycobacterium tuberculosis.
Data set [3] relates to M. tuberculosis H37Rv. The data set is described as follows: Checkerboard alamarBlue compound interaction assay. Type of data set: cell-based, Mycobacterium tuberculosis. To be noted: for FIC: FIC of the anti-TB drug in combination with DG70; for MIC: Mycobacterium tuberculosis, H37RV, drug alone, checkerboard; for MIC In combination: anti-TB drug in combination with DG70; for FIC category / FIC index (∑FIC): combination of the named drug with DG70. (In general: Alamar Blue is a resazurin reagent that responds to reducing activity.)

Data set [4] deals with mycobacterial oxygen consumption. The data set is described as follows: Oxygen consumption, methylene blue decolorization. The class given is cell-based.
Data set [5] deals with ATP synthesis in BCG. Type of data set: cell-based, Mycobacterium bovis BCG.
Data set [6] deals with menaquinone biosynthesis (MenG). The class given is cell-based, Mycobacterium bovis BCG.
For data set [7], the system named is BCG. Type of data set: cell-based, Mycobacterium bovis BCG.
Data set [8] deals with M. bovis BCG. The experiment in a line: microbe, parasite or virus in culture. Type of data set: cell-based. To be noted: Mycobacterium tuberculosis variant bovis BCG.
Data set [9] relates to menaquinone biosynthesis (MenG). The class given is cell-based, Mycobacterium bovis BCG. This is another data set of the same source.
For data set [10], the system named is nonreplicating M. tuberculosis. Type of data set: cell-based, Mycobacterium tuberculosis.
Where [11] appears, read: Table S2, parent H37Rv, read-out: MIC in Mtb H37Rv.
Setting [12] is: whole-cell activity versus M. tuberculosis, […], read-out: MIC.

This is an account of results in publication PMC5312080 (mBio, 2017).

In brackets after ≈: the same amount, converted by molar mass. Several values for one entry are separate records, joined by “and”; a condition that tells them apart may be missing. Equal values may be shown once. Read-outs that look alike come from different tables or passages of the source.

With `COc1ccc(NC(=O)c2ccc(F)cc2Cl)cc1` [JSF-2926], in [1], the CC50 was > 70 mg/L. Besides, the minimal inhibitory concentration (MIC) in data set [2] (setting [11]) and in [2] (setting [12]) was 9.6 mg/L (≈ 34.3 µM) throughout.
Consider `CSc1ccc2c(c1)N(CCC1CCCCN1C)c1ccccc1S2` (stereo not drawn) [THZ, thioridazine], for which, in data set [3], the FIC was determined as 0.5; the minimal inhibitory concentration (MIC) was 6.25 µM; the “MIC In combination” value is listed as 3.12 µM; the FIC category result is on record as “additive (>0.5 to ≤1, additive)”. Also, the “FIC index (∑FIC)” value in data set [3] was found to be 0.7. Also, in data set [4], the “effect of MK4 supplementation on inhibition of oxygen consumption” value is “failed to reverse”. In [5], the “effect of MK4 supplementation on inhibition of ATP synthesis” value was “failed to reverse”.
Regarding `COc1ccc(-c2cc(NC(=O)c3ccc(F)cc3)ccc2OC)cc1` [JSF-2909], in [1], the CC50 is > 50 mg/L. Also, the MIC in data set [2] (setting [11]) and in [2] (setting [12]) was > 77 mg/L each time.
In data set [1], `COc1ccc(-c2cc(NC(=O)c3ccccc3Cl)ccc2OC)cc1` [JSF-2908] yielded a CC50 of 50 mg/L (≈ 136 µM). For the same compound, the MIC in data set [2] (setting [11]) and in [2] (setting [12]) was 4.8 mg/L (≈ 13 µM) each time.
On to `COc1ccc(NC(=O)c2ccc(F)cc2Cl)cc1-c1ccccc1` [JSF-2971], for which the CC50 in data set [1] was > 50 mg/L. The MIC in data set [2] (setting [11]) and in [2] (setting [12]) was 9.6 mg/L (≈ 27 µM) in each case.
In data set [1], `O=C(Nc1ccc(O)c(-c2ccc(O)cc2)c1)c1ccc(F)cc1Cl` [JSF-2950] showed a CC50 of 50 mg/L (≈ 140 µM). For the same compound, the figures for the MIC in data set [2] (setting [11]) and in data set [2] (setting [12]) were 39.5 mg/L (≈ 110 µM) and 39 mg/L (≈ 109 µM), respectively.
Take `CO[C@H]1/C=C/O[C@@]2(C)Oc3c(C)c(O)c4c(O)c(c(/C=N/N5CCN(C)CC5)c(O)c4c3C2=O)NC(=O)/C(C)=C\C=C\[C@H](C)[C@H](O)[C@@H](C)[C@@H](O)[C@@H](C)[C@H](OC(C)=O)[C@@H]1C` [RIF, rifampin]: in data set [3], the FIC is 0.25; the MIC was determined as 0.02 µM; the “MIC In combination” value amounted to 0.005 µM; the FIC category result is “synergistic (≤0.5, synergistic)”. Moreover, the “FIC index (∑FIC)” value in data set [3] was determined as 0.5.
In data set [1], `COc1ccc(-c2cc(N(C)C(=O)c3ccc(F)cc3Cl)ccc2OC)cc1` [JSF-2949] came in with a CC50 of 24 mg/L (≈ 60 µM). Besides, the minimal inhibitory concentration (MIC) in data set [2] (setting [11]) was found to be 39.5 mg/L (≈ 98.8 µM); in [2] (setting [12]) it was 39 mg/L (≈ 97.5 µM).
As to `CC[C@@H](CO)NCCN[C@@H](CC)CO` [EMB, ethambutol], in data set [3], the FIC came out at 0.5; the MIC was 6.25 µM; the “MIC In combination” value turned out to be 3.12 µM; the FIC category result is “additive (>0.5 to ≤1, additive)”. Further, the “FIC index (∑FIC)” value in data set [3] came to 0.6.
Take `COc1ccc(-c2cc(NCc3ccc(F)cc3Cl)ccc2OC)cc1` [JSF-2951]: in [1], the CC50 is > 50 mg/L. Further, the MIC in data set [2] (setting [11]) and in data set [2] (setting [12]) was 77 mg/L (≈ 207 µM) each time.
Consider `COc1nc2ccc(Br)cc2cc1[C@@H](c1ccccc1)[C@@](O)(CCN(C)C)c1cccc2ccccc12` [BDQ, bedaquiline], for which, in data set [3], the FIC worked out at 0.4; the MIC is 0.39 µM; the “MIC In combination” value is recorded as 0.16 µM; the FIC category result is on record as “synergistic (≤0.5, synergistic)”. Also, in data set [3], the “FIC index (∑FIC)” value stood at 0.5. For the same compound, the “effect of MK4 supplementation on inhibition of oxygen consumption” value in [4] (400 µM MK4) is recorded as “failed to reverse”. Further, the “[14C]methyl incorporation into menaquinone” value in data set [6] is “no such effect”. Besides, in data set [7], the “killing (drop in CFU) over 21 days” value is 5 log10, the “killing in 4 days” value is reported as “less than 1 log10” and the “time of treatment to sterile cultures (no CFU detected)” value (“time of treatment … (no CFU detected)” below) turned out to be 21 days. Moreover, the “effect of MK4 supplementation on inhibition of ATP synthesis” value in [5] was “failed to reverse”.
In data set [1], `COc1ccc(-c2cccc(NC(=O)c3ccc(F)cc3Cl)c2)cc1` [JSF-2907] gave a CC50 of 50 mg/L (≈ 141 µM). Also, the MIC in data set [2] (setting [11]) and in [2] (setting [12]) was > 77 mg/L throughout.
With `O=C(Nc1cccc(-c2ccccc2)c1)c1ccc(F)cc1Cl` [JSF-2910], in data set [1], the CC50 is > 50 mg/L. For the same compound, the MIC in data set [2] (setting [11]) and in data set [2] (setting [12]) was 9.6 mg/L (≈ 29.5 µM) in each case.
As to `O=[N+]([O-])c1cn2c(n1)OC[C@@H](OCc1ccc(OC(F)(F)F)cc1)C2` [PA824], in [3], the FIC is on record as 1.0; the MIC was 0.1 µM; the “MIC In combination” value stood at 0.1 µM; the FIC category result is given as “additive (>0.5 to ≤1, additive)”. In addition, the “FIC index (∑FIC)” value in [3] is 1.0. For the same compound, in [7], the regrowth after is on record as 10 days and the “time of treatment … (no CFU detected)” value worked out at 10 days.
Turning to `NNC(=O)c1ccncc1` [INH, isoniazid], in data set [3], the FIC was found to be 0.2; the minimal inhibitory concentration (MIC) stood at 0.39 µM; the “MIC In combination” value came to 0.09 µM; the FIC category entry is given as “synergistic (≤0.5, synergistic)”. For the same compound, the “FIC index (∑FIC)” value in data set [3] amounted to 0.4. Moreover, the “oxygen consumption (methylene blue decolorization at 665 nm)” value in [4] is “clearly decolorized methylene blue”. In [8], this compound yielded an MIC90 of 0.05 mg/L (≈ 0.365 µM). Besides, in [6], the “[14C]methyl incorporation into menaquinone” value was “no such effect”. For the same compound, in data set [7], the regrowth after is 7 days and the “time of treatment … (no CFU detected)” value turned out to be 10 days. Moreover, the MK9/DMK9 in [9] was 3.8 and 2.9. Also, in data set [10], the “day by which cultures were completely sterilized” value was ≤ 10 days. In addition, the MIC90 in data set [2] came out at 0.05 mg/L (≈ 0.365 µM).
For `COc1ccc(-c2cc(NC(=O)c3ccccc3)ccc2OC)cc1` [JSF-2912], in data set [1], the CC50 is > 80 mg/L. Besides, the minimal inhibitory concentration (MIC) in data set [2] (setting [11]) and in data set [2] (setting [12]) was 9.6 mg/L (≈ 28.8 µM) throughout.

What is called MIC is the lowest concentration found to suppress growth.
